Drawing on patent US20180273528A1 (LES LABORATOIRES SERVIER, priority 2015, published 2018), this text covers IC50 for 17 compounds.

Test [1] addresses T1, His-TEV-DYRK1A Kinase domain (aa127-485) (Homo sapiens, UniProt Q13627).
T1 construct: His-TEV-DYRK1A Kinase domain (aa127-485); His tag (N); TEV protease cleavage site (N)
In words: Kinase ADP assay (ADP Hunter), DYRK1A kinase domain. Type of test: biochemical. Conditions: 20 μM ATP. The procedure, abridged:
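Compounds incubated 10 min at 30 °C with 20 nM enzyme, 40 μM peptide substrate and 20 μM ATP in pH 7.4 Hepes buffer with 10 mM MgCl2. ADP formed detected by ADP Hunter Plus reagents after 20 min at 30 °C, fluorescence read at 590 nm.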

A further test addresses T2, DYRK1B (Homo sapiens, UniProt Q9Y463).
T2 construct: full-length human kinases from Carna Biosciences; purchased Carna Biosciences 04-131
In words: Kinase TR-FRET assay, DYRK1B. Conditions: full-length human kinase, 10 μM ATP. Type of test: biochemical. The method, then: Inhibition of the enzymatic activity of human kinases was evaluated in a Time-Resolved Fluorescence Resonance Energy Transfer (TR-FRET) assay in 384-well reaction plates. […] Test compounds of the invention were added in reaction buffer at a range of concentrations from 0.1 nM to 30 μM. Following addition of EDTA (Sigma E7889, 10 mM) to stop the reaction, Europium-labelled mouse monoclonal antibody recognizing phospho-Thr232 in MBP (Perkin Elmer TRF0201, 1 nM) was added.

The target in a further test is T3, CDK9 (Homo sapiens, UniProt P50750).
T3 construct: full-length human kinases from Carna Biosciences; purchased Carna Biosciences 04-110
T3 sequence (P50750 whole entry): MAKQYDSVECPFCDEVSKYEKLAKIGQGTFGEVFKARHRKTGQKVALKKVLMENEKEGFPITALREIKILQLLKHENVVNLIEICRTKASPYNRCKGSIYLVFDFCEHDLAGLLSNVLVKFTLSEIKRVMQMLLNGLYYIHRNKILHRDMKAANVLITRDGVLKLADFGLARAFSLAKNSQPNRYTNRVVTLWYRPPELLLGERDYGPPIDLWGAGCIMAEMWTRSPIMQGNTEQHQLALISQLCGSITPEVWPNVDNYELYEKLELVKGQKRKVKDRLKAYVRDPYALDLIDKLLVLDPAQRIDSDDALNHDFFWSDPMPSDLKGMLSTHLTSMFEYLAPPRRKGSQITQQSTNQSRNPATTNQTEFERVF
T3 sequence (O60563 whole entry partner): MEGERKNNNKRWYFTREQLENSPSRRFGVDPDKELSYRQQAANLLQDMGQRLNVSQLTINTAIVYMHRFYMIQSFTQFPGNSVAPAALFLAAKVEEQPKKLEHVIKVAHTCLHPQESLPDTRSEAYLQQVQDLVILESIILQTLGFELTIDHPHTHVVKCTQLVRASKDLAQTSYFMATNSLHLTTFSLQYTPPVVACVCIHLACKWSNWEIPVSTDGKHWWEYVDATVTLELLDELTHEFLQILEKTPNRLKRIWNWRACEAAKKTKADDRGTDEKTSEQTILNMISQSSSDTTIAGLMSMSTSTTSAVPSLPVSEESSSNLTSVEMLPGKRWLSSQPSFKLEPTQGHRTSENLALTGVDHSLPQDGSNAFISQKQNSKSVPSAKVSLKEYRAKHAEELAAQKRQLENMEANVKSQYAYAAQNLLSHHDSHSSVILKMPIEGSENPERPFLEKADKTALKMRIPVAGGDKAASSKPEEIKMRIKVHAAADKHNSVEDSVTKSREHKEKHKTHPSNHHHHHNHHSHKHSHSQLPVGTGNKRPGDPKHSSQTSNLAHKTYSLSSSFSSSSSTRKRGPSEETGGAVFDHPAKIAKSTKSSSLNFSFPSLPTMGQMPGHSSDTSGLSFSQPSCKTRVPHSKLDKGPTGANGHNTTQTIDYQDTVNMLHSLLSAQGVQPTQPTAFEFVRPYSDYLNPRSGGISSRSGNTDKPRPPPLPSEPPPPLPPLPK
In words: Kinase TR-FRET assay, CDK9. The following applies: full-length human kinase, 10 μM ATP. Type of test: biochemical. The method, then: Inhibition of the enzymatic activity of human kinases was evaluated in a Time-Resolved Fluorescence Resonance Energy Transfer (TR-FRET) assay in 384-well reaction plates. In this assay, full-length human kinases from Carna Biosciences—DYRK1A (NM_001396, ref. 04-130; 2.0 ng/μl), DYRK1B (NM_004714, ref. 04-131; 1.2 ng/p), CLK1 (NM_001162407, ref. 04-126; 0.7 ng/μl), CDK9 (NM_001261, ref. 04-110; 0.9 ng/μl), or GSK3β (NM_001146156, ref. 04-141; 2.0 ng/μl—were incubated for 40 minutes (DYRK1A and DYRK1B) or 100 minutes (CLK1, CDK9 and GSK3β) at room temperature with ATP (Sigma A2383, 10 μM) and a ULight™-labelled human Myelin Basic Protein (MBP) peptide substrate (Perkin Elmer TRF0109, 100 nM) in a reaction buffer composed of 50 mM HEPES pH7.4, 1 mM EGTA, 10 mM MgCl2, 2 mM DTT and 0.01% Tween20. Test compounds of the invention were added in reaction buffer at a range of concentrations from 0.1 nM to 30 μM. Following addition of EDTA (Sigma E7889, 10 mM) to stop the reaction, Europium-labelled mouse monoclonal antibody recognizing phospho-Thr232 in MBP (Perkin Elmer TRF0201, 1 nM) was added. After one hour, the reaction plates were read using a fluorescence reader (EnVision®, Perkin Elmer) at 620 nm and 665 nm (excitation at 340 nm); when the Europium donor fluorophore is excited by light at 340 nm, an energy transfer (620 nm) to the acceptor occurs, which will then emit light at 665 nm.
A general note: TR-FRET usually uses a lanthanide donor and a delayed reading to cut background.

In test [2] the target is T4, DYRK1A (Homo sapiens, UniProt Q13627). Put plainly: Kinase TR-FRET assay, DYRK1A. Type of test: biochemical. The arrangement: full-length, wild-type human DYRK1A (NM_001396) with an HA tag; expressed in transfected cells; host or cells: human U2-OS osteosarcoma cells, transient transfection of a pcDNA3.1 plasmid. Conditions: full-length human kinase, 10 μM ATP. Summed up:
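Compounds tested at 0.1 nM to 30 μM in reaction buffer; reaction stopped with 10 mM EDTA. Phosphorylated MBP detected with 1 nM Europium-labelled anti-phospho-Thr232 antibody by TR-FRET.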

In test [3] the target is T4, DYRK1A. Put plainly: Cellular DYRK1 autophosphorylation assay in U2-OS cells. Conditions: U2-OS cells transfected with HA-tagged human DYRK1A, 5 hours exposure; read-out: IC50 (μM) P-Ser520-Dyrk1A -Cell assay. The test is classed as cell-based. The arrangement: full-length, wild-type human DYRK1A (NM_001396) with an HA tag; expressed in transfected cells; host or cells: human U2-OS osteosarcoma cells, transient transfection of a pcDNA3.1 plasmid. The procedure, abridged:
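U2-OS cells treated with a compound concentration range for 5 h. Phospho-Ser520-DYRK1A measured by western blot densitometry or Mesoscale ELISA. IC50 from dose-response curves; for blots, ratio of phospho-Ser520 to total DYRK1A signal.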

T2 sequence (Q9Y463 whole entry): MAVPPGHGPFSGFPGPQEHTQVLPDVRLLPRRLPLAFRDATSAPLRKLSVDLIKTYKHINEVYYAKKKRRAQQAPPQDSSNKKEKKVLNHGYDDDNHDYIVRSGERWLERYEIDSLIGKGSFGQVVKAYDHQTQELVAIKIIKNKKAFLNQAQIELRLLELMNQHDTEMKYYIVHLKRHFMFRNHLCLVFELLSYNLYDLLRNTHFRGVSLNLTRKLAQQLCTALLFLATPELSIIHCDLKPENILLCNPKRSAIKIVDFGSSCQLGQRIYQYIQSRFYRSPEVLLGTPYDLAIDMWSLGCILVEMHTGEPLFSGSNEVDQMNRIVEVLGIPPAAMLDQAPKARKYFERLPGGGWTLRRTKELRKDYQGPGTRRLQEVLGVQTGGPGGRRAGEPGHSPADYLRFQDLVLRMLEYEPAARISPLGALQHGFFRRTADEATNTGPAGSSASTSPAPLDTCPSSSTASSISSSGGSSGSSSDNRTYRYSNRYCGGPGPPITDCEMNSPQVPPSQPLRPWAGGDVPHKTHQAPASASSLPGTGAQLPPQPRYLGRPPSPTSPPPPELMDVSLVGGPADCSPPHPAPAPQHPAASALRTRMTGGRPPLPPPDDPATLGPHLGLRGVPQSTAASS

The term IC50 denotes the midpoint of a concentration-inhibition curve. For `Cc1nc2ccc(-c3cc(N)nc(N)c3)nc2n1C1CCCC1` [Example 1, 4-(3-cyclopentyl-2-methyl-3H-imidazo[4,5-b]pyridin-5-yl)pyridine-2,6-diamine], the IC50 stood at 0.01 µM in test [1]; 0.004 µM at DYRK1B; 0.314 µM on CDK9; 0.013 µM against DYRK1A [2]; 0.08 µM at DYRK1A [3].
On to `CCCn1c(C)nc2ccc(-c3cc(N)nc(N)c3)nc21` [Example 2, 4-(2-methyl-3-propyl-3H-imidazo[4,5-b]pyridin-5-yl)pyridine-2,6-diamine], for which the IC50 in test [1] amounted to 0.01 µM; at DYRK1B it was 0.001 µM; against CDK9, 0.383 µM; against DYRK1A [2], 0.008 µM; at DYRK1A [3], 0.2 µM.
`Cc1nc2ccc(-c3cc(N)nc(N)c3)nc2n1CCC1CCCCC1` [Example 15, 4-[3-(2-cyclohexylethyl)-2-methyl-3H-imidazo[4,5-b]pyridin-5-yl]pyridine-2,6-diamine]: the IC50 was determined as 0.011 µM in test [1]; 0.008 µM on DYRK1B; 0.47 µM on CDK9; 0.004 µM against DYRK1A [2]; 0.11 µM on DYRK1A [3].
For the compound `Cc1nc2ccc(-c3cc(N)nc(N)c3)nc2n1CCc1ccco1` [Example 19, 4-{3-[2-(furan-2-yl)ethyl]-2-methyl-3H-imidazo[4,5-b]pyridin-5-yl}pyridine-2,6-diamine], the IC50 in test [1] stood at 0.012 µM; on DYRK1B, 0.003 µM; at CDK9, 1.95 µM; on DYRK1A [2], 0.003 µM; on DYRK1A [3], 0.226 µM.
As for `Cc1nc2ccc(-c3cc(N)nc(N)c3)nc2n1C(C)(C)C` [Example 25, 4-(3-tert-butyl-2-methyl-3H-imidazo[4,5-b]pyridin-5-yl)pyridine-2,6-diamine], the IC50 in test [1] is 0.01 µM; against DYRK1B, 0.006 µM; on CDK9, 1.84 µM; on DYRK1A [2], 0.007 µM; at DYRK1A [3] it was 0.228 µM.
For `Cc1nc2ccc(-c3cc(N)nc(N)c3)nc2n1CCc1ccsc1` [Example 29, 4-{2-methyl-3-[2-(thiophen-3-yl)ethyl]-3H-imidazo[4,5-b]pyridin-5-yl}pyridine-2,6-diamine], the half-maximal inhibitory concentration (IC50) in test [1] amounted to 0.011 µM; against DYRK1B, 0.011 µM; against CDK9 it was 3.44 µM; against DYRK1A [2], 0.004 µM; at DYRK1A [3], 0.057 µM.
As to `Cc1nc2ccc(-c3cc(N)nc(N)c3)nc2n1CC(C)C` [Example 31, 4-[2-methyl-3-(2-methylpropyl)-3H-imidazo[4,5-b]pyridin-5-yl]pyridine-2,6-diamine], the half-inhibitory concentration (IC50) in test [1] came to 0.01 µM; against DYRK1B, 0.002 µM; against CDK9 it was 1.78 µM; at DYRK1A [2], 0.009 µM; at DYRK1A [3] it was 0.07 µM.
The corresponding values for `Cc1nc2ccc(-c3cc(N)nc(N)c3)nc2n1CC1CCOC1` (stereo not shown) [Example 41, 4-[2-methyl-3-(tetrahydrofuran-3-ylmethyl)-3H-imidazo[4,5-b]pyridin-5-yl]pyridine-2,6-diamine] are 0.011 µM, 0.011 µM, 2.71 µM, 0.029 µM and 0.131 µM.
In the case of `Cc1nc2ccc(-c3cc(N)nc(N)c3)nc2n1CCc1ccc(Cl)c(Cl)c1` [Example 58, 4-{3-[2-(3,4-dichlorophenyl)ethyl]-2-methyl-3H-imidazo[4,5-b]pyridin-5-yl}pyridine-2,6-diamine], the concentration for half-maximal inhibition (IC50) in test [1] was 0.013 µM; against DYRK1B, 0.013 µM; against CDK9, above 10 µM; on DYRK1A [2], 0.003 µM; at DYRK1A [3] it was 0.08 µM.
For the compound `Cc1nc2ccc(-c3cc(N)nc(N)c3)nc2[nH]1` [Example 61, 4-(2-methyl-3H-imidazo[4,5-b]pyridin-5-yl)pyridine-2,6-diamine], the IC50 was 0.009 µM in test [1]; 0.004 µM against DYRK1B; above 10 µM at CDK9; 0.002 µM against DYRK1A [2]; 0.155 µM on DYRK1A [3].
`Cc1ccccc1CCn1c(C)nc2ccc(-c3cc(N)nc(N)c3)nc21` [Example 63, 4-{2-methyl-3-[2-(2-methylphenyl)ethyl]-3H-imidazo[4,5-b]pyridin-5-yl}pyridine-2,6-diamine]: the IC50 in test [1] is 0.008 µM; against DYRK1B, 0.007 µM; against CDK9, above 10 µM; at DYRK1A [2] it was 0.003 µM; on DYRK1A [3] it was 0.024 µM.
For `Cc1nc2ccc(-c3cc(N)nc(N)c3)nc2n1C1CCSCC1` [Example 66, 4-[2-methyl-3-(tetrahydro-2H-thiopyran-4-yl)-3H-imidazo[4,5-b]pyridin-5-yl]pyridine-2,6-diamine], the IC50 was determined as 0.009 µM in test [1]; 0.012 µM at DYRK1B; 0.365 µM at CDK9; 0.005 µM on DYRK1A [2]; 0.072 µM at DYRK1A [3].
Take `Cc1nc2ccc(-c3cc(N)nc(N)c3)nc2n1[C@H](C)c1ccnc(F)c1` [Example 149, 4-{3-[(1R)-1-(2-fluoropyridin-4-yl)ethyl]-2-methyl-3H-imidazo[4,5-b]pyridin-5-yl}pyridine-2,6-diamine]: the half-inhibitory concentration (IC50) in test [1] was 0.026 µM; on DYRK1B, 0.004 µM; against CDK9 it was above 10 µM; against DYRK1A [2], 0.01 µM; on DYRK1A [3], 0.33 µM.
The corresponding values for `COCCCn1c(C)nc2ccc(-c3cc(N)nc(N)c3)nc21` [Example 150, 4-[3-(3-methoxypropyl)-2-methyl-3H-imidazo[4,5-b]pyridin-5-yl]pyridine-2,6-diamine] are 0.019 µM, 0.014 µM, 3.03 µM, 0.006 µM and 0.28 µM.
With `CCCCn1c(C)nc2ccc(-c3cc(N)nc(NCc4ccccc4)c3)nc21` [Example 231, N-benzyl-4-(3-butyl-2-methyl-3H-imidazo[4,5-b]pyridin-5-yl)pyridine-2,6-diamine], the IC50 in test [1] is 0.046 µM; at DYRK1B it was 0.003 µM; against CDK9, above 10 µM; against DYRK1A [2] it was 0.011 µM.
The corresponding values for `CCCCn1c(C)nc2ccc(-c3cc(N)nc(NC(=O)Cc4ccccc4)c3)nc21` [Example 235, N-[6-amino-4-(3-butyl-2-methyl-3H-imidazo[4,5-b]pyridin-5-yl)pyridin-2-yl]-2-phenylacetamide] are 0.207 µM, 0.091 µM, above 10 µM and 0.013 µM.
Turning to `Cc1nc2ccc(-c3ccnc(N)c3)nc2n1CCC1CCCCC1` [Example 237, 4-[3-(2-cyclohexylethyl)-2-methyl-3H-imidazo[4,5-b]pyridin-5-yl]pyridin-2-amine], the IC50 was 0.045 µM in test [1], 0.005 µM on DYRK1B, 0.718 µM against CDK9 and 0.005 µM at DYRK1A [2].
